This note sets out measurements from ChEMBL document CHEMBL1142332, “N-(3-(phenylcarbamoyl)arylpyrimidine)-5-carboxamides as potent and selective inhibitors of Lck: structure, synthesis and SAR” (Bioorg Med Chem Lett, 2008).

For test [1], the target named is Tyrosine-protein kinase Lck (Homo sapiens, UniProt P06239). Description: Inhibition of Lck by HTRF assay. (In general: In TR-FRET formats the signal depends on donor and acceptor labels being close together.)
Test [2] has as its target Vascular endothelial growth factor receptor 2 (Homo sapiens, UniProt P35968). Description: Inhibition of KDR.
Test [3] addresses Angiopoietin-1 receptor (Homo sapiens, UniProt Q02763). Kind of test: Inhibition of Tie2.
Test [4] deals with T1, Tyrosine-protein kinase JAK3 (Homo sapiens, UniProt P52333).
T1 sequence (P52333 whole entry): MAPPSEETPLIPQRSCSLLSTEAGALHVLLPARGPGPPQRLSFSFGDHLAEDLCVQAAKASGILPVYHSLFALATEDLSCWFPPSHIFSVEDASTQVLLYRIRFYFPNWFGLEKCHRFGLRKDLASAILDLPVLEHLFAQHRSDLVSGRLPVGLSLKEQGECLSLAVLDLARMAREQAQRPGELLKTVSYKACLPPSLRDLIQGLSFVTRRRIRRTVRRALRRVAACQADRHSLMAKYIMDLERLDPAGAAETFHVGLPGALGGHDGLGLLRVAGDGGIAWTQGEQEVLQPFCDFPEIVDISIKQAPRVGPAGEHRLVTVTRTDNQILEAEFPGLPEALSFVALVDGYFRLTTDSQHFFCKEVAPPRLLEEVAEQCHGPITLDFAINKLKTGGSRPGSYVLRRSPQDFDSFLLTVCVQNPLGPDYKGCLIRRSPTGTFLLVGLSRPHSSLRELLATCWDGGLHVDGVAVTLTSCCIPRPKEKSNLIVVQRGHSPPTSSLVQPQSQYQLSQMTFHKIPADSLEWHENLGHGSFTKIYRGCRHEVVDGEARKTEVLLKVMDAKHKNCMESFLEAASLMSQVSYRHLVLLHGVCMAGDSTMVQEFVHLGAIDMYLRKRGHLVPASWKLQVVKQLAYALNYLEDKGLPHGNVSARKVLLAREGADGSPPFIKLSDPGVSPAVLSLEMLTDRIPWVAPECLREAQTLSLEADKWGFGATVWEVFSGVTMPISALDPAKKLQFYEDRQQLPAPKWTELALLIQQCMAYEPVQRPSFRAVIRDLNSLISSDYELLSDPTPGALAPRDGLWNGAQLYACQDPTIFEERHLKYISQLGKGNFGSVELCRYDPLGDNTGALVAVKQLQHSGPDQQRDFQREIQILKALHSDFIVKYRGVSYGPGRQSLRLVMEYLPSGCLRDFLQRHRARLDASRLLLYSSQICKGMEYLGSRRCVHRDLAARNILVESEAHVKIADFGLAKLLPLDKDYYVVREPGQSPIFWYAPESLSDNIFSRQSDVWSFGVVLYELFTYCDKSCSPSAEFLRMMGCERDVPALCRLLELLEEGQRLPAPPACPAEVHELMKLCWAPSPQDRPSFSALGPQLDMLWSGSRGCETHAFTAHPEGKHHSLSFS
Kind of test: Inhibition of Jak3.

Test [5] concerns T-cell. Description: Inhibition of T cell activation in human mixed lymphocyte reaction. The format is functional, cell-based.
In test [6] the target is Mitogen-activated protein kinase 14 (Homo sapiens, UniProt Q16539). Description: Inhibition of p38alpha.
Mitogen-activated protein kinase 14, sequence (Q16539 whole entry): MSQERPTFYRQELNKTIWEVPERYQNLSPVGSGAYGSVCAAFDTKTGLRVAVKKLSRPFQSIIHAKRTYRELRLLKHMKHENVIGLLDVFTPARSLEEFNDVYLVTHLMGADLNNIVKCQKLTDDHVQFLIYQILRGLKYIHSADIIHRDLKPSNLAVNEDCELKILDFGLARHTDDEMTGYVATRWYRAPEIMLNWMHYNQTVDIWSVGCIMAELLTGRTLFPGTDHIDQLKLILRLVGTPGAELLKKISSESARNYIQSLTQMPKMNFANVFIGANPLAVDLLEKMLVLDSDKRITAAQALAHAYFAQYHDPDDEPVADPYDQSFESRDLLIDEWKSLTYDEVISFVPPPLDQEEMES

Vascular endothelial growth factor receptor 2, sequence (P35968 whole entry): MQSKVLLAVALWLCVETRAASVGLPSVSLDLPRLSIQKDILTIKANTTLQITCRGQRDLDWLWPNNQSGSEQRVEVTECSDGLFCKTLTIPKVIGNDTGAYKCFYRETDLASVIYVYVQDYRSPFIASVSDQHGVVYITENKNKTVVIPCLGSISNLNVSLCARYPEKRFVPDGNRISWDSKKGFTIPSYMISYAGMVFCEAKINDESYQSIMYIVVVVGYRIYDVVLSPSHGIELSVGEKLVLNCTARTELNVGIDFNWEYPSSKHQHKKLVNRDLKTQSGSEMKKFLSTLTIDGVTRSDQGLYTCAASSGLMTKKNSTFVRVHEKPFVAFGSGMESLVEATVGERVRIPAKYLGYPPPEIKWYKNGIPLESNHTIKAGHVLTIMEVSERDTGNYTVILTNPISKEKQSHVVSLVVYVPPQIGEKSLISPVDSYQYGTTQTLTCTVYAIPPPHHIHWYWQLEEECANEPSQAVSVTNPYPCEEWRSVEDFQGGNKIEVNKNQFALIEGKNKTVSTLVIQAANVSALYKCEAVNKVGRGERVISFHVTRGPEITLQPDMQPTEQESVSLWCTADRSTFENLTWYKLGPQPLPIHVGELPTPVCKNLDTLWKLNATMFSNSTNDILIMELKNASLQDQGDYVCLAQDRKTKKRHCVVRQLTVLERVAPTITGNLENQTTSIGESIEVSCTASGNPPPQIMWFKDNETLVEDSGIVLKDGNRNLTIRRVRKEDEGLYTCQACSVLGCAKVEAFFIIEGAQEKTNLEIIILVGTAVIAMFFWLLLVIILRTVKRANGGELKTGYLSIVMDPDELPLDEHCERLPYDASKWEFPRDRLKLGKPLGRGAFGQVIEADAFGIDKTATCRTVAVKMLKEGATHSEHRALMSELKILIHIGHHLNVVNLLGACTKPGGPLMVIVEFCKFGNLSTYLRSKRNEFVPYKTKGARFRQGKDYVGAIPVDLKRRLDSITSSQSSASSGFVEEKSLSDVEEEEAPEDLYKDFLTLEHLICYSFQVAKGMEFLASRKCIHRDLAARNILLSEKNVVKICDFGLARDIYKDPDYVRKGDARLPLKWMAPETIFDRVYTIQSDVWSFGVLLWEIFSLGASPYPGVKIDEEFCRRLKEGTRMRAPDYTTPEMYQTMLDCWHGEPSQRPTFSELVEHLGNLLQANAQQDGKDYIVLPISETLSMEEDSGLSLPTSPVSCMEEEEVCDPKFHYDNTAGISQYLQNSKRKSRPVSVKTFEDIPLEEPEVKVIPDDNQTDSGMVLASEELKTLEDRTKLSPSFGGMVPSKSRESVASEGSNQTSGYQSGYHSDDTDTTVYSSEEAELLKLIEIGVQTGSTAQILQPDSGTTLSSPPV
Angiopoietin-1 receptor, sequence (Q02763 whole entry): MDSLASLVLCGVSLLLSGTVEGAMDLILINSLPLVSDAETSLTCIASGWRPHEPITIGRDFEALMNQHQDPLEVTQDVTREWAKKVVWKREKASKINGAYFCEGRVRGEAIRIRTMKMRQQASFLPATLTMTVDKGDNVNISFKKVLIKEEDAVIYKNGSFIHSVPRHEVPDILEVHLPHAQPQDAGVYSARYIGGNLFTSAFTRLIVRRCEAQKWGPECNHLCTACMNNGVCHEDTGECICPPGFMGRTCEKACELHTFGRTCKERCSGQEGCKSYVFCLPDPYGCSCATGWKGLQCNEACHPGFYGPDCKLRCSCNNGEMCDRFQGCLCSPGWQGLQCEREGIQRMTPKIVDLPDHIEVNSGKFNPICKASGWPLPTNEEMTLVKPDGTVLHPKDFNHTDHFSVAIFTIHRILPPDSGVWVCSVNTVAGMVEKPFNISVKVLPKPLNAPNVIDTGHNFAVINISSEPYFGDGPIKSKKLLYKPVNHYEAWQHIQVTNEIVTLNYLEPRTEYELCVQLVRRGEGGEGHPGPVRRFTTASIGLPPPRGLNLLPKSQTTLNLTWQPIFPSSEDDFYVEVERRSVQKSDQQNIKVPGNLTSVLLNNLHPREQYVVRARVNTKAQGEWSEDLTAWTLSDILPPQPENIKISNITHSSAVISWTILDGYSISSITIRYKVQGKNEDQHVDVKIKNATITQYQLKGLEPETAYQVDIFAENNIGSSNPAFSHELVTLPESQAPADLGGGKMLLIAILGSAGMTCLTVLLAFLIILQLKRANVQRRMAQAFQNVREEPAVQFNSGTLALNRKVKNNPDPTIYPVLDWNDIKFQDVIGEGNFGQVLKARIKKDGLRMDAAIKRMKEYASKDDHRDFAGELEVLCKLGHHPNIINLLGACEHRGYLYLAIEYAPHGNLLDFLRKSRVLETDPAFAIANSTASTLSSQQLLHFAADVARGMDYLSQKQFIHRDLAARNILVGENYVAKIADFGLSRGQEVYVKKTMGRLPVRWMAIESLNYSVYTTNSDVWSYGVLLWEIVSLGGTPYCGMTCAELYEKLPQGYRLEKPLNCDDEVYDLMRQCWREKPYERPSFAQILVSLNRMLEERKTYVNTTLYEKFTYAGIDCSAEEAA
Tyrosine-protein kinase Lck, sequence (P06239 whole entry): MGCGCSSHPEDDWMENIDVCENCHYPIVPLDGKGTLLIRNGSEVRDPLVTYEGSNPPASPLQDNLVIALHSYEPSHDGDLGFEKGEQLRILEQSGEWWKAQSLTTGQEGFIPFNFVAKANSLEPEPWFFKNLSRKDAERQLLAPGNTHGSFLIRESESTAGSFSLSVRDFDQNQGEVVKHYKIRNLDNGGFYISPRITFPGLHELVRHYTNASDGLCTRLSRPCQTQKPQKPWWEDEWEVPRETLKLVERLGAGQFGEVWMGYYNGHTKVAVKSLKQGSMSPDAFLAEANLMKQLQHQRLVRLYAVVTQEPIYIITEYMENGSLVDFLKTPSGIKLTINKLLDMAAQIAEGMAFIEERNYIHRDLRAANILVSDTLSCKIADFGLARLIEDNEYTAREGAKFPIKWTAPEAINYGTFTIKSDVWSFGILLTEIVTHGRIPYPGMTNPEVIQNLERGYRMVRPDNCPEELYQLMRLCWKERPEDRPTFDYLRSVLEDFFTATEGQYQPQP

As a reminder, the IC50 is the concentration needed to halve the response being measured. High values mean lower potency, low ones higher potency. `COc1nc(NCCCCN(C)C)ncc1C(=O)Nc1cc(C(=O)Nc2cccc(C(F)(F)F)c2C)ccc1C`: the IC50 in test [1] is 45 nM; in test [2] it was over 25 µM; in test [3], over 25 µM; in test [4], over 25 µM.
Consider `Cc1ccc(C(=O)Nc2cccc(C(F)(F)F)c2)cc1NC(=O)c1cnc(NCCN2CCOCC2)nc1Oc1ccccc1`, for which the half-inhibitory concentration (IC50) in test [1] is 41 nM; in test [5] it was over 10 µM; in test [2] it was over 25 µM; in test [3], over 25 µM; in test [4] it was over 25 µM.
For the compound `COc1nc(NCCCN2CCN(C)CC2)ncc1C(=O)Nc1cc(C(=O)Nc2cccc(C(F)(F)F)c2C)ccc1C`, the IC50 in test [1] was 19 nM; in test [5], 2.71 µM; in test [2], over 25 µM; in test [3] it was over 25 µM; in test [4], over 25 µM.
For the compound `CNc1ncc(C(=O)Nc2cc(C(=O)Nc3cccc(C(F)(F)F)c3F)ccc2C)c(OC)n1`, the IC50 is 7 nM in test [1]; 254 nM in test [6]; over 10 µM in test [5]; over 25 µM in test [2]; over 25 µM in test [3]; over 25 µM in test [4].
As for `CNc1ncc(C(=O)Nc2cc(C(=O)Nc3cccc(C(F)(F)F)c3F)ccc2C)c(NC)n1`, the concentration for half-maximal inhibition (IC50) in test [1] is 84 nM; in test [6], 2.4 nM; in test [2] it was 6.68 µM; in test [3] it was over 25 µM; in test [4], over 25 µM.
On to `CNc1ncc(C(=O)Nc2cc(C(=O)Nc3cccc(C(F)(F)F)c3)ccc2C)c(Oc2ccccc2)n1`, for which the IC50 in test [1] is 25 nM; in test [5], over 10 µM; in test [2] it was over 25 µM; in test [3], over 25 µM; in test [4], over 25 µM.
Regarding `CNc1ncc(C(=O)Nc2cc(C(=O)Nc3cccc(C(F)(F)F)c3C)ccc2C)c(OC)n1`, the IC50 in test [1] was 44 nM; in test [6], over 10000 nM; in test [5], over 10 µM; in test [2], over 25 µM; in test [3], over 25 µM; in test [4], over 25 µM.
For the compound `Cc1ccc(C(=O)Nc2cccc(C(F)(F)F)c2)cc1-c1ccc2nc(N)ncc2c1`, the IC50 in test [3] was found to be 0.002 µM.
On to `COc1nc(NC2CCN(C)CC2)ncc1C(=O)Nc1cc(C(=O)Nc2cccc(C(F)(F)F)c2)ccc1C`, for which the IC50 in test [1] is 101 nM; in test [2] it was over 25 µM; in test [3], over 25 µM; in test [4], over 25 µM.
For the compound `CNc1ncc(C(=O)Nc2cc(C(=O)Nc3cccc(C(F)(F)F)c3)ccc2C)c(OC)n1`, the IC50 in test [1] is 53 nM; in test [6], 2720 nM; in test [5], over 10 µM; in test [2], 8.33 µM; in test [3], over 25 µM; in test [4], over 25 µM.
Turning to `COc1nc(NCCN2CCOCC2)ncc1C(=O)Nc1cc(C(=O)Nc2cccc(C(F)(F)F)c2)ccc1C`, the IC50 is 22 nM in test [1]; 4.92 µM in test [5]; 2.03 µM in test [2]; over 25 µM in test [3]; over 25 µM in test [4].
As to `COc1nc(Nc2ccc(N3CCN(C)CC3)cc2)ncc1C(=O)Nc1cc(C(=O)Nc2cccc(C(F)(F)F)c2F)ccc1C`, the IC50 was 0.6 nM in test [1]; 856 nM in test [6]; 0.107 µM in test [5]; 0.255 µM in test [2]; 3.44 µM in test [3]; 0.334 µM in test [4].
